Measurements: ChEMBL document CHEMBL1140426, “First structure-activity relationship study on dopamine D3 receptor agents with N-[4-(4-arylpiperazin-1-yl)butyl]arylcarboxamide structure” (J Med Chem, 2005)

Columns and labels:
D(3) dopamine receptor [1] = target: T1, D(3) dopamine receptor (Homo sapiens, UniProt P35462); assay: biochemical
Description: Displacement of [3H]spiroperidol from cloned human dopamine receptor D3 in CHO cell membrane

D(3) dopamine receptor [2] = target: T1, D(3) dopamine receptor
Description: Intrinsic activity against dopamine receptor D3 by Eu-GTP binding assay

T1 sequence (P35462 whole entry): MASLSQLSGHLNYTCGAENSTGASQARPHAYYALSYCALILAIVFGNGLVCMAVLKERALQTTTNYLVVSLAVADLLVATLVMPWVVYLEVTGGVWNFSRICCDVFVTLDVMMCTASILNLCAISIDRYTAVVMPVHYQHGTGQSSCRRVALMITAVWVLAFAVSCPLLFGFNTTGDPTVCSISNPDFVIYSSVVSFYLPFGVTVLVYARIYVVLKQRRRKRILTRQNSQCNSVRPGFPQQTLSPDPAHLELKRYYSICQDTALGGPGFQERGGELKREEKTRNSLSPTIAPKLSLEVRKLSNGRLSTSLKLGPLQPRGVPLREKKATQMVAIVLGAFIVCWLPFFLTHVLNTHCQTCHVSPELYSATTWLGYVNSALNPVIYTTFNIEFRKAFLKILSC

Ki (D(3) dopamine receptor [1]) [nM]	EC50 (D(3) dopamine receptor [2]) [nM]	SMILES
3.4		COc1ccccc1N1CCN(CCCCNC(=O)[C@H]2CC[C@H](c3ccccc3)CC2)CC1
22.8		O=C(NCCCCN1CCN(c2cccc(Cl)c2Cl)CC1)[C@H]1CC[C@H](c2ccccc2)CC1
11.9	209	O=C(NCCCCN1CCN(c2cccc(Cl)c2Cl)CC1)c1ccccc1
20.6	1820	COc1ccccc1N1CCN(CCCCNC(=O)[C@H]2CC[C@@H](c3ccccc3)CC2)CC1
0.3		COc1ccccc1N1CCN(CCCCNC(=O)c2ccc(-c3ccccc3)cc2)CC1
32.6		COc1ccccc1N1CCN(CCCCNC(=O)c2cccc3ccccc23)CC1
1.98		O=C(NCCCCN1CCN(c2cccc(Cl)c2Cl)CC1)c1ccc(-c2ccccc2)cc1
10.6	631	O=C(NCCCCN1CCN(c2cccc(Cl)c2Cl)CC1)[C@H]1CC[C@@H](c2ccccc2)CC1

SMILES	Ki (D(3) dopamine receptor [1]) [nM]	EC50 (D(3) dopamine receptor [2]) [nM]
COc1ccccc1N1CCN(CCCCNC(=O)c2ccc3c(c2)Cc2ccccc2-3)CC1	0.52	49
O=C(NCCCCN1CCN(c2cccc(Cl)c2Cl)CC1)c1cccc2ccccc12	6.9	60.3
O=C(NCCCCN1CCN(c2cccc(Cl)c2Cl)CC1)c1ccc2ccccc2c1	7.9	
